Earlier results on one compound are cited in patent US10835538B2, “Method of treating benign prostatic hyperlasia with antibiotics” (Nymox Corporation, priority 2018, dated 2020).

Turning to `CC(COc1ccccc1)N(CCCl)Cc1ccccc1` (centres unmarked) [phenoxybenzamine], the “Cases treated in which side effects cannot be tolerated and therapy has to be abandoned” value (human, in vivo) is “about 10%”. Besides, the “Patients treated for BPH in whom side effects are present” value (hypotension, dizziness, faintness, tachycardia, weakness, retrograde or absent ejaculation) was “approximately 30%”.
